Here are results for ten compounds from US6699884B2, “Fluoro-substituted benzenesulfonyl compounds for the treatment of inflammation” (Pharmacia Corporation, priority 2001, dated 2004).

The structures appear in SMILES notation. pIC50: −log10 of the molar value.

One test addresses T1, Human COX-2 (Homo sapiens, UniProt P35354).
T1 construct: A 2.0 kb fragment containing the coding region of either human or murine COX-1 or human or murine COX-2; made in house; host or cells: SF9 insect cells (baculovirus, pVL1393)
T1 sequence (P35354 18-604): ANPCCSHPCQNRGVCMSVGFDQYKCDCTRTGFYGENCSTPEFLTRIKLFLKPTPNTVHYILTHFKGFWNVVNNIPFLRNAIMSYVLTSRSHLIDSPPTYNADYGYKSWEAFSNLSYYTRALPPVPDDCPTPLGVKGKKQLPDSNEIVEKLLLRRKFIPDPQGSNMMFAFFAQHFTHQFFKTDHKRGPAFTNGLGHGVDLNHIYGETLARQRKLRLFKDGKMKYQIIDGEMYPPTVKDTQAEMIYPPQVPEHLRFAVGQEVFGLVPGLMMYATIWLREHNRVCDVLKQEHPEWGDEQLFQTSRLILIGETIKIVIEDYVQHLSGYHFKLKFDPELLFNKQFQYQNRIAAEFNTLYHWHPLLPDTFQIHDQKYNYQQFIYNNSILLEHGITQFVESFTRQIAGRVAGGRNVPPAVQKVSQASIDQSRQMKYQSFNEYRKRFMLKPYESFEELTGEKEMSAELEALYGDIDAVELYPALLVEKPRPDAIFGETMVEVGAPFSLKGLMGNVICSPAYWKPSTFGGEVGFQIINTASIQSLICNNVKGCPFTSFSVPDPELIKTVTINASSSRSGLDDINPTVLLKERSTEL
The test is described as follows: Fast assay for COX-2 activity (PGE2 formed, ELISA). The class given is biochemical. The settings on record: recombinant enzyme in CHAPS-solubilized insect cell membranes; 10 min pre-incubation at 25° C.; 10 μM arachidonic acid.

For a further test, the target named is T2, Human COX-1 (Homo sapiens, UniProt P23219).
T2 construct: A 2.0 kb fragment containing the coding region of either human or murine COX-1 or human or murine COX-2; made in house; host or cells: SF9 insect cells (baculovirus, pVL1393)
Put plainly: Fast assay for COX-1 activity (PGE2 formed, ELISA). The settings on record: recombinant enzyme in CHAPS-solubilized insect cell membranes; 10 min pre-incubation at 25° C.; 10 μM arachidonic acid. The class given is biochemical. As for the experimental part: Recombinant baculoviruses were isolated by transfecting 4 μg of baculovirus transfer vector DNA into SF9 insect cells (2×10^8) along with 200 ng of linearized baculovirus plasmid DNA by the calcium phosphate method. See M. D. Summers and G. E. Smith, A Manual of Methods for Baculovirus Vectors and Insect Cell Culture Procedures, Texas Agric. Exp. Station Bull. […] Recombinant viruses were purified by three rounds of plaque purification and high titer (10^7-10^8 pfu/mL) stocks of virus were prepared. For large scale production, SF9 insect cells were infected in 10 liter fermentors (0.5×10^6/mL) with the recombinant baculovirus stock such that the multiplicity of infection was 0.1. After 72 hours the cells were centrifuged and the cell pellet homogenized in Tris/Sucrose (50 mM: 25%, pH 8.0) containing 1% 3-[(3-cholamidopropyl)dimethylammonio]-1-propanesulfonate (CHAPS). The homogenate was centrifuged at 10,000×G for 30 minutes, and the resultant supernatant was stored at −80° C. before being assayed for COX activity.
COX activity was assayed as PGE2 formed/μg protein/time using an ELISA to detect the prostaglandin released. CHAPS-solubilized insect cell membranes containing the appropriate COX enzyme were incubated in a potassium phosphate buffer (50 mM, pH 8.0) containing epinephrine, phenol, and heme with the addition of arachidonic acid (10 μM). Compounds were pre-incubated with the enzyme for 10-20 minutes prior to the addition of arachidonic acid. Any reaction between the arachidonic acid and the enzyme was stopped after ten minutes at 37° C. room temperature by transferring 40 μl of reaction mix into 160 μl ELISA buffer and 25 μM indomethacin. The PGE2 formed was measured by standard ELISA technology (Cayman Chemical).
COX activity was assayed as PGE2 formed/μg protein/time using an ELISA to detect the prostaglandin released. […] Compounds were pre-incubated with the enzyme for 10 minutes at 25° C. prior to the addition of arachidonic acid. Any reaction between the arachidonic acid and the enzyme was stopped after two minutes at 37° C./room temperature by transferring 40 μl of reaction mix into 160 μl ELISA buffer and 25 μM indomethacin. The PGE2 formed was measured by standard ELISA technology (Cayman Chemical).

Take `CS(=O)(=O)c1c(F)cc(-c2cc(C(F)(F)F)nn2-c2ccc(F)cc2)cc1F` [Example 1, 5-[3,5-difluoro-4-(methylsulfonyl)phenyl]-1-(4-fluorophenyl)-3-(trifluoromethyl)-1H-pyrazole]: the pIC50 on Human COX-2 was 5.46; on Human COX-1, below 4.00.

Consider `Cc1ccc(-n2nc(C(F)F)cc2-c2cc(F)c(S(C)(=O)=O)c(F)c2)cc1Cl` [Example 2, 1-(3-chloro-4-methylphenyl)-3-(difluoromethyl)-5-[3,5-difluoro-4-(methylsulfonyl)phenyl]-1H-pyrazole], for which the pIC50 is 6.26 on Human COX-2 and below 4.00 on Human COX-1.

Take `CS(=O)(=O)c1c(F)cc(-c2cc(C(F)(F)F)nn2-c2cccc(C(F)(F)F)c2)cc1F` [Example 3, 5-[3,5-difluoro-4-(methylsulfonyl)phenyl]-3-(trifluoromethyl)-1-[3-(trifluoromethyl)phenyl]-1H-pyrazole]: the values for the pIC50 at Human COX-2 and on Human COX-1 were 6.52 and below 4.00, respectively.

On to `CS(=O)(=O)c1c(F)cc(-c2cc(C(F)(F)F)nn2-c2ccc(OC(F)(F)F)cc2)cc1F` [Example 4, 5-[3,5-difluoro-4-(methylsulfonyl)phenyl]-1-[4-(trifluoromethoxy)phenyl]-3-(trifluoromethyl)-1H-pyrazole], for which the pIC50 was 7.00 at Human COX-2 and below 4.00 on Human COX-1.

For the compound `CS(=O)(=O)c1c(F)cc(-c2cc(C(F)F)nn2C2CCCCC2)cc1F` [Example 5, 1-cyclohexyl-3-(difluoromethyl)-5-[3,5-difluoro-4-(methylsulfonyl)phenyl]-1H-pyrazole], the pIC50 on Human COX-1 is below 4.00.

In the case of `Cc1ccc(-n2nc(C(F)(F)F)cc2-c2cc(F)c(S(C)(=O)=O)c(F)c2)cc1Cl` [Example 6, 1-(3-chloro-4-methylphenyl)-5-[3,5-difluoro-4-(methylsulfonyl)phenyl]-3-(trifluoromethyl)-1H-pyrazole], the negative logarithm of the IC50 (pIC50) at Human COX-2 was 7.05; at Human COX-1, below 4.00.

As for `CS(=O)(=O)c1cc(F)c(-c2cc(C(F)(F)F)nn2-c2ccc(Cl)cc2)cc1F` [Example 7, 1-(4-chlorophenyl)-5-[2,5-difluoro-4-(methylsulfonyl)-phenyl]-3-(trifluoromethyl)-1H-pyrazole], the negative-log IC50 (pIC50) on Human COX-2 was 7.05; at Human COX-1, 4.25.

For `COc1ccc(-n2nc(C(F)(F)F)cc2-c2cc(F)c(S(C)(=O)=O)cc2F)cc1` [Example 8, 5-[2,5-difluoro-4-(methylsulfonyl)phenyl]-1-(4-methoxyphenyl)-3-(trifluoromethyl)-1H-pyrazole], the pIC50 on Human COX-2 is 6.60; on Human COX-1, 4.83.

On to `Cc1onc(-c2ccccc2)c1-c1cc(F)c(S(C)(=O)=O)c(F)c1` [Example 14, 4-[3,5-difluoro-4-(methylsulfonyl)phenyl]-5-methyl-3-phenylisoxazole], for which the pIC50 on Human COX-1 is below 4.00.

For `Cc1onc(-c2ccccc2)c1-c1cc(F)c(S(N)(=O)=O)c(F)c1` [Example 15, 2,6-difluoro-4-(5-methyl-3-phenylisoxazol-4-yl)benzene-sulfonamide], the negative-log IC50 (pIC50) on Human COX-2 was 6.92; on Human COX-1, below 4.00.
